Results reported in PubChem BioAssay (NCI).
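GI50: concentration for 50% inhibition of growth. TGI is the concentration that stops growth completely.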

What was measured:
Test in all cases: NCI tumour cell line growth inhibition, 384-well format
A498 renal = tested on: A498 renal
A549 NSCLC = tested on: A549 NSCLC
HCC-2998 colon = tested on: HCC-2998 colon
KM12 colon = tested on: KM12 colon
MDA-MB-468 breast = tested on: MDA-MB-468 breast
MOLT-4 leukemia = tested on: MOLT-4 leukemia
NCI-H322M lung = tested on: NCI-H322M lung
NCI/ADR-RES ovarian = tested on: NCI/ADR-RES ovarian
OVCAR-4 ovarian = tested on: OVCAR-4 ovarian
SNB-75 CNS = tested on: SNB-75 CNS
SR leukemia = tested on: SR leukemia
UACC-257 melanoma = tested on: UACC-257 melanoma
UO-31 renal = tested on: UO-31 renal

COc1cc(C)[nH]c(=O)c1CNC(=O)c1c(C)n([C@H](C)C2CCN(CC(F)(F)F)CC2)c2ccccc12
GI50 (A498 renal): 43.1 µM | TGI (A498 renal): > 100 µM | GI50 (A549 NSCLC): 46.8 µM | TGI (A549 NSCLC): > 100 µM | GI50 (HCC-2998 colon): 65.3 µM | TGI (HCC-2998 colon): > 100 µM | GI50 (KM12 colon): 53.8 µM | TGI (KM12 colon): > 100 µM | GI50 (MDA-MB-468 breast): 21.4 µM | TGI (MDA-MB-468 breast): 51.3 µM | GI50 (MOLT-4 leukemia): 16.5 µM | TGI (MOLT-4 leukemia): 31.3 µM | GI50 (NCI-H322M lung): > 83.6 µM | TGI (NCI-H322M lung): > 100 µM | GI50 (NCI/ADR-RES ovarian): > 100 µM | TGI (NCI/ADR-RES ovarian): > 100 µM | GI50 (OVCAR-4 ovarian): 45.5 µM | TGI (OVCAR-4 ovarian): > 100 µM | GI50 (SNB-75 CNS): 42 µM | TGI (SNB-75 CNS): > 100 µM | GI50 (SR leukemia): 21.5 µM | TGI (SR leukemia): 76.5 µM | GI50 (UACC-257 melanoma): 50.3 µM | TGI (UACC-257 melanoma): > 100 µM | GI50 (UO-31 renal): 90.4 µM | TGI (UO-31 renal): > 100 µM
